From paper PMC4721545 (Bioscience Reports, 2015)
Where two headings read alike, the source gives them in different places.

Columns and labels:
EAE in C57BL/6 mice [1] = test: Chronic EAE induced with MOG35-55, clinical score and body weight; type: in vivo, mouse; settings: 800 μg/200 μl daily i.p., day 3 to 27 p.i.; for mean clinical score: EAE control 1.29±1.08, P<0.001; for maximum clinical score: EAE control 2.78; for body weight loss vs EAE mice: P<0.001
Description: Female C57BL/6 mice (8–10 weeks old and 18–20 g of body weight) were purchased from Vital River Laboratory Animal Technology Co. Ltd. All experiments were conducted in accordance with the guidelines of the International Council for Laboratory Animal Science. The study was approved by the Ethics Committee of Shanxi Datong University. […].
Mouse myelin oligodendrocyte glycoprotein peptide 35–55 (MOG35–55, MEVGW […]) was produced in an automatic synthesizer (CL. Bio-Scientific Company). The purity of the peptide was >95% as determined by HPLC. Chronic EAE was induced by subcutaneous immunization on the upper dorsal flanks with 300 μg of MOG35–55 in Freund's complete adjuvant (Sigma) supplemented with 3 mg/ml of M. Tuberculosis H37Ra (BD Difco; […]). Mice were injected intraperitoneally (i.p.) with 500 ng of pertussis toxin (Enzo Life Sciences) on days 0 and 2 post-immunization (p.i.). Animals were weighed and evaluated for clinical score every other day in a blinded fashion by at least two investigators. Clinical score of EAE was graded according to the following criteria: 0: healthy; 1: limp tail; 2: ataxia and/or paresis of hind limbs; 3: paralysis of hind limbs and/or paresis of forelimbs; 4: tetraparalysis; and 5: moribund or death. When the clinical score of EAE reaches 3, we give suitable care including softening of food with water in dish and additional nutrients such as egg, making mice easy to obtain food and nutrition.
Mice were divided into three groups: Fasudil-treated group (n=8), FSD-C10-treated group (n=8) and double-distilled water (ddH2O) EAE control group (n=9). […] Mice were i.p. injected with 800 μg/200 μl/daily from day 3 to day 27 p.i. Mice that received the same volume of ddH2O i.p. served as control.

primary neurons [2] = test: MTT cell viability assay, primary neurons; type: cell-based, mouse; settings: 24 h
Description: (§1) Embryonic 18-day-mouse cortex (Shanghai SLAC Laboratory Animal Co. Ltd) were dissected under a microscope and then triturated into the suspension in Neurobasal-A-medium (Gibco) supplemented with 2% B27 (Gibco), 100 units/ml penicillin and 100 μg/ml streptomycin (Gibco). The cells were then plated on cover slips coated with poly-D-lysine (0.1 mg/ml; Sigma) at a density of 1×10^6 cells per cm^2 at 37°C in a humidified cell incubator under a 95%/5% (v/v) mixture of air and CO2, with the cell media being replaced every 48 h. After 7 days, neurons were incubated with different conditioned medium.
(§2) Cell viability of BV-2 microglia and primary neurons was detected by MTT assay. In brief, 100 μl of MTT solution (0.5 mg ml^−1, Duchefa) was added to cultured cells and incubated for an additional 4 h at 37°C, until the medium turned purple. Absorbance at 570 nm was measured by a microplate reader after addition of 100 μl DMSO. Each experiment was performed in triplicate and repeated three times with separate cell preparations. Results were expressed as a percentage of the control value at 570 nm.

primary neurons [3] = test: LDH release cell death assay, primary neurons; type: cell-based; settings: 24 h
Description: as §1
(§3) The death of BV-2 microglia and primary neurons was measured by LDH release in the culture medium. Levels of LDH release in supernatants of cultured cells were measured using the cytotoxicity detection kit (Promega) according to the manufacturer's protocol. Maximum LDH release (A570) was determined following the treatment of cells with lysis buffer and considered as control value (100% LDH release). Data were expressed as a percentage of the control value.

BV-2 microglia [4] = test: MTT cell viability assay, BV-2 microglia; type: cell-based; settings: 24 h
Description: (§4) The BV-2 immortalized microglial cell line was purchased from ShenKe Biological Technology Co. and cultured in Dulbecco's modified Eagle's medium (DMEM; Gibco), supplemented with 10% FBS (Gibco), 100 units/ml penicillin and 100 μg/ml streptomycin (Gibco) at 37°C in a humidified cell incubator under a 95%/5% (v/v) mixture of air and CO2. Cells were plated on a 96-well plate at a density of 1.0×10^6 /ml (200 μl/well), on a 24-well plate at 1.0×10^6/ml (500 μl/well) and at 0.2×10^6 /ml (500 μl/well) for different experiments.
as §2

BV-2 microglia [5] = test: LDH release cell death assay and morphology, BV-2 microglia; type: cell-based; settings: for BV-2 microglia cell death / morphology: 75 μg/ml and 200 μg/ml, 48 h culture; for death of BV-2 microglia (LDH release): 24 h
Description: as §4, §3

primary neurons [6] = test: Neurite outgrowth of primary neurons (MAP-2 staining, Image J); type: cell-based, mouse; settings: PBS control 4.1 μm; P<0.01
Description: as §1
(§5) Fluorescent photomicrographs of neurons with microtubule-associated protein-2 (MAP-2) staining or photomicrographs of BV-2 cells under inverted microscope were captured with a 20× objective and a digital camera of Olympus microscope. Images were acquired from randomly selected fields for each group. The length of the longest neurite outgrown or dendritic formation in the cell body was measured by an investigator blinded to the experimental groups using a public-domain image-processing program (Image J, http://rsb.info.nih.gov/ij). Average lengths of neuronal neurite or dendritic formation were used for quantification.

BV-2 microglia [7] = test: Dendritic formation of BV-2 microglia (Image J); type: cell-based; settings: for breakage of dendritic branches on BV-2 microglia: 75 and 200 μg/ml; for dendritic length of BV-2 microglia (mean): PBS control 2.94 μm, P<0.001
Description: as §4, §5

[8] = test system: BDNF, GDNF, NT-3, Nogo protein in brain; test: Western blot of neurotrophic factors and Nogo in brain of EAE mice; type: in vivo, mouse; settings: day 28 p.i., vs control EAE mice; for expression of BDNF protein in brain / expression of GDNF protein in brain / expression of NT-3 protein in brain: P<0.05
Description: (§6) Mice were divided into three groups: Fasudil-treated group (n=8), FSD-C10-treated group (n=8) and double-distilled water (ddH2O) EAE control group (n=9). […] Mice were i.p. injected with 800 μg/200 μl/daily from day 3 to day 27 p.i. Mice that received the same volume of ddH2O i.p. served as control. Protein from brains was homogenized on ice with an extraction kit and protein concentration was determined by a Bradford protein assay. Protein extracts (30 μg) were separated by SDS/PAGE and transferred on to a PVDF membrane (Immobilon-P; Millipore Corp.). The membranes were then incubated with anti-GDNF (glial cell line-derived neurotrophic factor; 1:1000, Epitomics), anti-BDNF (brain-derived neurotrophic factor; 1:1000, Promega), anti-NT-3(neurotrophin-3; 1:1000, Epitomics), anti-Nogo(1:1000, Epitomics), anti-iNOS (inducible nitric oxide synthase) (1:1000, Cell Signaling Technology) […], anti-arginase-1 ([…]) (1:1000, BD Bioscience) and anti-β-actin (1:10000, Cell Signaling Technology) for overnight at 4°C. Bands were visualized by horseradish peroxidase (HRP-) conjugated secondary antibodies and ECL kit under ECL system (GE Healthcare Life Sciences).

[9] = test system: iNOS and Arg-1 expression in brain; test: Western blot of iNOS and Arg-1 in brain of EAE mice (M1/M2 polarization); type: in vivo, mouse; settings: day 28 p.i.
Description: as §6

C57BL/6 mice = test: Test of vasodilation in naive mice; type: in vivo; settings: healthy mice, 800 μg/mouse i.p., after 30 and 60 min
mice = type: in vivo; settings: within 2 h
Description: […]. […] Given that FSD-C10 was well tolerant in vivo, further pre-clinical studies are valuable for the treatment of MS.
[…]. […] TEXT PRINTED IN THE PICTURE: (b) Fasudi: Mortality (%): 0% (800 μg /mouse/day); Mortality (%): 33% (1600 μg /mouse/day); Mortality (%): 67% (2000 μg /mouse/day) | (b) FSD-C10: Mortality (%): 0% (800 μg /mouse/day); Mortality (%): 0% (1600 μg /mouse/day); Mortality (%): 0% (2000 μg /mouse/day)

ROCK I = molecular target: T1, ROCK I (Homo sapiens, UniProt Q13464); test: ROCK inhibition by mobility shift assay, ROCK I; type: biochemical; settings: ATP con. 3.6 μM
T1 construct: purchased Carna
T1 sequence (Q13464 whole entry): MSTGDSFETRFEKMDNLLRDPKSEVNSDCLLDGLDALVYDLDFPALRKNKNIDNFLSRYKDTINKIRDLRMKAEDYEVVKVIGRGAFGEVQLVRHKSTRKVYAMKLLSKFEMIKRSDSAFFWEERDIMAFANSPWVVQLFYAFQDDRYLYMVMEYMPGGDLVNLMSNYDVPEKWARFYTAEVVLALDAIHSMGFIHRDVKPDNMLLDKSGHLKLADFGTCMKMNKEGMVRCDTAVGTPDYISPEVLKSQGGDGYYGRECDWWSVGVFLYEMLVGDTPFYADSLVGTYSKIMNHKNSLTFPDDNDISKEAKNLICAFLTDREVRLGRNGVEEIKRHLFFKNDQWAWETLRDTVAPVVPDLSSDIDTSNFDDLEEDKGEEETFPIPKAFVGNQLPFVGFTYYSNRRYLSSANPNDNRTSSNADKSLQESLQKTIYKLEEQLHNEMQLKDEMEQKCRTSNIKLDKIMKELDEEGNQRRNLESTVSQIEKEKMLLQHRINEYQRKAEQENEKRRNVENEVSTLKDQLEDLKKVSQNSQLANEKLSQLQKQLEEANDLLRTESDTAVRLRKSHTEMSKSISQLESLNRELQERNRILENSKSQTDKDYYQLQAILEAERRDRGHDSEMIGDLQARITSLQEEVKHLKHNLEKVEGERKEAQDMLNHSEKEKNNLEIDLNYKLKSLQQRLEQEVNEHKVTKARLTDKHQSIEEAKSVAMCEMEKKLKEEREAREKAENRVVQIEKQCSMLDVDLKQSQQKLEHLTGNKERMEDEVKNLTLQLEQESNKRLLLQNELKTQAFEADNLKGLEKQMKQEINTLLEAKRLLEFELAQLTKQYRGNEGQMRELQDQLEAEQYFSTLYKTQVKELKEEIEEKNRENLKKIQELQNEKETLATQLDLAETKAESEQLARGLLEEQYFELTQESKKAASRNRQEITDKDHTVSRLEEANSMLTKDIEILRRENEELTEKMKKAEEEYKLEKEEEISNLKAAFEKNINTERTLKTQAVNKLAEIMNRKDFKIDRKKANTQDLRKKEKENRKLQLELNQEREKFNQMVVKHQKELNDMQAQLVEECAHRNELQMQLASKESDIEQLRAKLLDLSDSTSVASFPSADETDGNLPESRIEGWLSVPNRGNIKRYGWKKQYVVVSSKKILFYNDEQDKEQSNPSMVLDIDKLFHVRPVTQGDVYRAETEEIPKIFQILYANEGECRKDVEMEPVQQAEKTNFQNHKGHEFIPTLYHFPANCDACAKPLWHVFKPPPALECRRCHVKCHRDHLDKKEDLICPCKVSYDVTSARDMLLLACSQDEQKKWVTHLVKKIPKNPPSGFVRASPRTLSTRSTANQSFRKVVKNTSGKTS
Description: (§7) Staurosporine (Sigma) was used as positive control and saline was used as negative control.
(§8) DMSO (100 μl) was added to two empty wells for no compound control and no enzyme control in the same 96-well plate. Mobility shift assay was performed according to the manufacturer's protocol. […] The mixtures (5 μl) were incubated with 2.5× enzyme solution (10 μl) in 384-well plate at room temperature for 10 min and control was performed by adding 5 μl of kinase buffer.
(§9) Percentinhibition=max−conversion/max−min×100
(§10) where max stands for DMSO control; min stands for low control.

ROCK II = molecular target: T2, ROCK II (Homo sapiens, UniProt O75116); test: ROCK inhibition by mobility shift assay, ROCK II; type: biochemical; settings: ATP con. 5.3 μM
T2 construct: purchased Carna
T2 sequence (O75116 whole entry): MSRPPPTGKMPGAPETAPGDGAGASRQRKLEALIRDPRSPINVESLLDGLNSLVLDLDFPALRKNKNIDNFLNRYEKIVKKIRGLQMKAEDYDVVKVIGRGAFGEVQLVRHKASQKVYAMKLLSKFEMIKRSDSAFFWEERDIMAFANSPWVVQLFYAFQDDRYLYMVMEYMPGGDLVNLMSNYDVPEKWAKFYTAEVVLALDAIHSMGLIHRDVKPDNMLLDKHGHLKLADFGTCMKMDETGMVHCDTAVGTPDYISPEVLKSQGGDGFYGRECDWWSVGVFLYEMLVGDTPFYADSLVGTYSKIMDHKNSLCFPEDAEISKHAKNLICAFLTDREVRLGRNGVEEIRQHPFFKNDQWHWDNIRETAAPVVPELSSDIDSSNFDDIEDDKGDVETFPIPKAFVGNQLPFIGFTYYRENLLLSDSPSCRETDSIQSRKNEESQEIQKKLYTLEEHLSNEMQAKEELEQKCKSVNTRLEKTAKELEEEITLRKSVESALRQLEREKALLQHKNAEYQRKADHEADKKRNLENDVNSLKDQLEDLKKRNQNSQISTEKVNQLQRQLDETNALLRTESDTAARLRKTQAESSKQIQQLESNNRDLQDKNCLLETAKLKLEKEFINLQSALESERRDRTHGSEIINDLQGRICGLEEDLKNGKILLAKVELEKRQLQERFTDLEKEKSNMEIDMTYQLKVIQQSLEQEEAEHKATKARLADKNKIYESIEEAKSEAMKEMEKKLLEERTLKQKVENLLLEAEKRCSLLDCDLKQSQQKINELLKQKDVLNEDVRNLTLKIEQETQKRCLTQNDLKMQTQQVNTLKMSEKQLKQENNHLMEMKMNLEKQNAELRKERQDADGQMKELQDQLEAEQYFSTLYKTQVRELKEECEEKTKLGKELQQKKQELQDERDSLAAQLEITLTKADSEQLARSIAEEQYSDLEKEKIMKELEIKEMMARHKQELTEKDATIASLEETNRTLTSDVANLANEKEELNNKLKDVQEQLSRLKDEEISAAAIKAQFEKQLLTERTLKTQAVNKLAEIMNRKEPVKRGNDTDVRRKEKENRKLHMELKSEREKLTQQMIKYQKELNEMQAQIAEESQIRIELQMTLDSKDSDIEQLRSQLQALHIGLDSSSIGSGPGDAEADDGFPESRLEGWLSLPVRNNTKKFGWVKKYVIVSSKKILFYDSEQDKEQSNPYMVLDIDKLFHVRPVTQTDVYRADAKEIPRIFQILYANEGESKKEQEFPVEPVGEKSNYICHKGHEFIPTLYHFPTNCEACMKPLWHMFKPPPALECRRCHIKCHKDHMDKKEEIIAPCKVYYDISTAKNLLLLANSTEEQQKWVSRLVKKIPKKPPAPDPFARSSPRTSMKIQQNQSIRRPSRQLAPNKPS
Description: as §7, §8, §9, §10

EAE in C57BL/6 mice [10] = test system: EAE in C57BL/6 mice; design: method as in PMID 24749492; settings: previous studies; cited from earlier work

Row | SMILES | mean clinical score (EAE in C57BL/6 mice [1]) | maximum clinical score (EAE in C57BL/6 mice [1]) | body weight loss vs EAE mice (EAE in C57BL/6 mice [1]) | viability of primary neurons (MTT) (primary neurons [2]; 75 μg/ml, vs control) | viability of primary neurons (MTT) (primary neurons [2]; 0.6–15 μg/ml) | death of primary neurons (LDH release) (primary neurons [3]; 0.6–15 μg/ml) | viability of BV-2 microglia (MTT) (BV-2 microglia [4]; 75 μg/ml, vs control) | viability of BV-2 microglia (MTT) (BV-2 microglia [4]; 0.6–15 μg/ml) | BV-2 microglia cell death / morphology (BV-2 microglia [5]) | death of BV-2 microglia (LDH release) (BV-2 microglia [5]; 0.6–15 μg/ml) | neurite length of primary neurons (mean) (primary neurons [6]) | breakage of dendritic branches on BV-2 microglia (BV-2 microglia [7]) | dendritic length of BV-2 microglia (mean) (BV-2 microglia [7]) | expression of Nogo protein in brain [8] | expression of BDNF protein in brain [8] | expression of GDNF protein in brain [8] | expression of NT-3 protein in brain [8] | Arg-1 expression in brain [9] | iNOS expression in brain [9] | vasodilation on the foot of mice (C57BL/6 mice) | further results
1 | Cl.O=S(=O)(c1cccc2cnccc12)N1CCCNCC1 [Fasudil, hexahydro-1-(5-isoquinolinyl-sulfonyl)-1H-1,4-diazepine monohydrochloride, reference compound] | 0.04±0.07 | 0.19 | less body weight loss | significant decrease | did not influence | did not influence | significant decrease | did not influence | obvious cell death | did not influence | 6.6 μm | caused significant breakage | 12.5 μm | slightly, although not significantly, declined | significantly enhanced | significantly enhanced | significantly enhanced | elevated | inhibited | obvious vasodilation | Mortality (%) (mice; 800 μg/mouse i.p.): 0%; Mortality (%) (mice; 1600 μg/mouse i.p.): 33%; Mortality (%) (mice; 2000 μg/mouse i.p.): 67%
2 | O=S(=O)(c1cccc2cnccc12)N1CCC[C@H]1CCl [FSD-C10] | 0.28±0.23 | 0.50 | less body weight loss | did not lead to significant decrease | did not influence | did not influence | did not lead to significant decrease | did not influence | good cell morphology | did not influence | 10.5 μm | did not cause significant breakage | 12.5 μm | slightly, although not significantly, declined | significantly enhanced | significantly enhanced | significantly enhanced | elevated | inhibited | relatively weak vasodilator effect | IC50 (ROCK I): 1140 nM; IC50 (ROCK II): 711 nM; death of primary neurons (LDH release) (primary neurons [3]; 75 μg/ml, vs control): did not lead to significant decrease; death of BV-2 microglia (LDH release) (BV-2 microglia [5]; 75 μg/ml, vs control): did not lead to significant decrease; BV-2 cell death at higher doses with the extension of time (BV-2 microglia [5]; ≥200 μg/ml, result not shown): caused cell death; clinical severity of EAE (EAE in C57BL/6 mice [10]): ameliorated
